Data on 72 compounds can be found in the OPERA property sets (Mansouri et al. 2018).

SMILES strings stand for the structures.

Details in one data set: not given
Turning to `Cc1cc(O)cc(Br)c1`, the melting point was 56.5 °C.
Compound `N=C(N)NOCC[C@H](N)C(=O)O` had a melting point of 184 °C.
The compound `CCCCCCCCCc1ccc2ccccc2c1` registered a boiling point of 372 °C and a melting point of 12 °C.
`C/C=C/CO`: the boiling point was found to be 121 °C.
In turn, `CC(=O)Oc1ccc(C2(c3ccc(OC(C)=O)cc3)C(=O)Nc3ccccc32)cc1` had a melting point of 242 °C.
`CC(Br)C(=O)O` (centres undefined) showed a boiling point of 203 °C.
The compound `O=C1OCc2c(Cl)c(Cl)c(Cl)c(Cl)c21` showed a log10 Koc (L/kg) of 3.3, a log10 vapour pressure (mmHg) of -7.65 and a melting point of 210 °C.
For `CC(C)OC(=O)c1ccccc1O`, the boiling point was determined as 238 °C.
For `CC(Cl)(Cl)C(=O)O`, the boiling point was found to be 188 °C, the log10 Koc (L/kg) amounted to 0.4, the log10 vapour pressure (mmHg) is -0.821 and the melting point was -5 °C.
On to `c1ccc2cc3c4ccccc4c4ccccc4c3cc2c1`, for which the boiling point turned out to be 524 °C, the log10 vapour pressure (mmHg) was -10 and the melting point was 206 °C.
In turn, `CCC(C)C(C)C(C)(C)C` (centres undefined) showed a boiling point of 157 °C.
On to `Cc1cc(Cl)ccc1[N+](=O)[O-]`, for which the melting point is 25.5 °C.
Same read-out and setting: the same measure for `CN(CCO)c1nc2c(c(=O)n(C)c(=O)n2C)n1C`: 105 °C.
Compound `CC(C)(C)O` had a boiling point of 82.4 °C, a log10 Henry constant (atm·m³/mol) of -5.04, a log10 Koa of 3.5 and a log10 vapour pressure (mmHg) of 1.61. In addition, the melting point was found to be 25.4 °C and the ready biodegradability result is “not readily biodegradable”.
Consider `CC[SiH](CC)CC`, for which the boiling point stood at 109 °C.
`CC(=O)c1c(C)cc(C)cc1C` yielded a boiling point of 241 °C.
`ON=C1CCCC1` returned a boiling point of 196 °C and a melting point of 57.8 °C.
On to `CC(=O)Oc1ccccc1C(=O)O`, for which the log10 vapour pressure (mmHg) was -4.6, the melting point amounted to 135 °C and the ready biodegradability result is listed as “readily biodegradable”.
As for `CS(=O)(=O)c1cc(C(F)(F)F)ccc1C(=O)c1cnoc1C1CC1`, the log10 Henry constant (atm·m³/mol) is -9.73, the log10 vapour pressure (mmHg) is -8.12 and the melting point was 140 °C.
In turn, `CCN1C[C@]2(COC)CCC(O)[C@]34C1C(O)([C@@H](OC)[C@H]23)C1(O)C[C@H](OC)[C@H]2C[C@@H]4[C@@H]1[C@H]2OC` (some centres undefined) registered a melting point of 214 °C.
`C=CC(O)CCCCCC` (centres undefined) gave a boiling point of 194 °C.
`CCCC#N` showed a boiling point of 118 °C, a log10 Henry constant (atm·m³/mol) of -4.28, a log10 Koa of 3.12 and a log10 vapour pressure (mmHg) of 1.29. Also, the melting point was -112 °C.
In turn, `COc1cc(-c2coc3cc(O)c(OC)c(O)c3c2=O)cc(O)c1OC` yielded a melting point of 185 °C.
For the compound `CC=C(Cl)CCl`, the boiling point stood at 130 °C.
Compound `CCC1(CC)COC(=O)NC1=O` showed a melting point of 97.5 °C.
Take `CCC1(C2=C[C@H]3CC[C@@H](C2)C3)C(=O)NC(=O)NC1=O`: the melting point was determined as 213 °C.
`CC(C)(C)NC(=O)[C@H]1CC[C@H]2[C@@H]3CC[C@H]4NC(=O)C=C[C@]4(C)[C@H]3CC[C@]12C` had a melting point of 253 °C.
The same measure, in the same setting: the same measure for `C[C@H](N[C@H](CCc1ccccc1)C(=O)O)C(=O)N1CCC[C@H]1C(=O)O`: 150 °C.
Turning to `CCc1cccc(C)c1C`, the boiling point is 194 °C, the log10 biodegradation half-life (days) amounted to 0.778, the log10 vapour pressure (mmHg) was -0.206 and the melting point is -49.5 °C.
On to `O=c1n(CC2CO2)c(=O)n(CC2CO2)c(=O)n1CC1CO1` (centres undefined), for which the ready biodegradability entry was “not readily biodegradable”.
Compound `c1ccc(OCc2ccc(CCCN3CCOCC3)cc2)cc1` yielded a melting point of 52.5 °C.
The compound `FC(F)(Br)C(F)(F)C(F)(F)C(F)(F)C(F)(F)C(F)(F)C(F)(F)Br` registered a boiling point of 159 °C.
`CCC(C)=NNc1ccc([N+](=O)[O-])cc1[N+](=O)[O-]` had a melting point of 117 °C.
On the same count and under the same terms, the same measure for `Cc1cccc(Nc2ccccc2C(=O)O)c1C`: 230 °C.
In turn, `O=C(Cl)C1CCCCC1` showed a boiling point of 180 °C.
With `CCCCCCCCCC=CC(=O)O`, the melting point is 17.1 °C.
Take `ClCI`: the boiling point was 109 °C and the log10 Henry constant (atm·m³/mol) is -3.06.
As to `Cc1cccc(-c2ccccc2)c1`, the boiling point was 273 °C and the melting point was 4.5 °C.
In turn, `CCCCCCCCCCC/C=C\CCCCC(=O)O` showed a melting point of 29.8 °C.
Compound `CC[Si](F)(F)CC` came in with a boiling point of 61 °C and a melting point of -78.7 °C.
Compound `COC(=O)c1sccc1N` came in with a melting point of 65 °C.
The compound `CCOC(=O)c1cc2ccccc2o1` returned a boiling point of 276 °C and a melting point of 30.5 °C.
On to `ClC(Cl)(Cl)c1ccccc1`, for which the boiling point was 221 °C, the log10 vapour pressure (mmHg) was -0.383, the melting point is -5 °C and the ready biodegradability entry is given as “readily biodegradable”.
`O=C(O)c1ccccc1C(=O)Nc1cccc2ccccc12` registered a melting point of 185 °C.
`CCCN(CCC)c1c([N+](=O)[O-])cc(C)cc1[N+](=O)[O-]`: the melting point stood at 80 °C.
In the case of `CCCCCCCCCCCCCCCC(C)C`, the boiling point is 311 °C and the melting point stood at 5.7 °C.
In turn, `CC(Oc1ccc(Oc2ncc(C(F)(F)F)cc2Cl)cc1)C(=O)O` (centres undefined) yielded a melting point of 108 °C.
Take `C=C(CC(C)(C)c1ccccc1)c1ccccc1`: the ready biodegradability result is “not readily biodegradable”.
`Nc1ncnc2c1ncn2[C@@H]1O[C@H](CO)C[C@H]1O` yielded a melting point of 226 °C.
Compound `N#CC(F)(F)F` showed a boiling point of -68.8 °C.
Regarding `NC(=S)Nc1ccccc1`, the melting point came to 154 °C.
The same measure, in the same setting: the same measure for `O=C(O)c1ccnc2ccccc12`: 254 °C.
With `O=[N+]([O-])c1ccc(F)cc1O`, the log10 Henry constant (atm·m³/mol) was -4.71, the log10 vapour pressure (mmHg) was -1.64 and the melting point was 36 °C.
Regarding `CC(C)OC(=O)C1(S(=O)(=O)c2ccc([N+](=O)[O-])cc2)CCCCCC1`, the melting point amounted to 83.5 °C.
Same read-out and setting: the same measure for `CCC(=O)c1ccc(Cl)cc1`: 37.3 °C.
As to `CCCOC(=O)c1ccc(C(=O)OCCC)nc1`, the ready biodegradability result was “not readily biodegradable”.
On to `CC[C@@H]1CN2CCc3c([nH]c4cccc(OC)c34)[C@H]2C[C@@H]1/C(=C\OC)C(=O)OC`, for which the melting point stood at 104 °C.
Same read-out and setting: the same measure for `CC(C)NCC1CCc2cc(CO)c([N+](=O)[O-])cc2N1` (centres undefined): 148 °C; for `Nc1cc(Cl)c(Cl)c(Cl)c1`: 99 °C.
Consider `CCC(C)CC(C)C(C)C` (centres undefined), for which the boiling point amounted to 161 °C.
As to `FCOC(C(F)(F)F)C(F)(F)F`, the boiling point came out at 58.5 °C and the log10 vapour pressure (mmHg) is 2.29.
For `c1ccc(-c2ccc3ccccc3c2)cc1`, the boiling point is 346 °C, the log10 vapour pressure (mmHg) was -4.46 and the melting point was 104 °C.
`COC=Cc1ccccc1` displayed a boiling point of 212 °C.
As to `C/C=C/C#N`, the melting point was -51.5 °C.
In the case of `O=C(Nc1ccccc1)c1cc2ccccc2cc1O`, the melting point is 248 °C and the ready biodegradability entry was “not readily biodegradable”.
Compound `c1cc2ccc3cccc4ccc(c1)c2c34` displayed a boiling point of 404 °C, a log10 Henry constant (atm·m³/mol) of -4.92, a log10 Koa of 8.8 and a log10 Koc (L/kg) of 4.9. The log10 biodegradation half-life (days) was 2.37, the log10 vapour pressure (mmHg) is -5.35 and the melting point is 151 °C.
`C#CC(C)(CC)OC(N)=O` (centres undefined) gave a melting point of 55.8 °C.
Still for that read-out and setting: the same measure for `O=C(O)c1ccc(NC(=O)[C@H](Cc2ccc(O)cc2)NC(=O)c2ccccc2)cc1`: 241 °C; for `N#CC1CC2CCC1C2` (centres undefined): 44 °C.
The same measure, in the same setting: the same measure for `Nc1cccc2cccnc12`: 70 °C.
The compound `CCc1ccccc1OC` yielded a boiling point of 187 °C.
Consider `O=C1COc2ccccc21`, for which the melting point turned out to be 102 °C.

Still in this data set, the particulars now being: fish.
On to `CC(C)(C)O`, for which the log10 BCF worked out at 0.7 and the log10 biotransformation half-life (days) is -1.13.
Regarding `Nc1cc(Cl)c(Cl)c(Cl)c1`, the log10 BCF came to 2.36 and the log10 biotransformation half-life (days) is 0.28.
As for `O=C(Nc1ccccc1)c1cc2ccccc2cc1O`, the log10 BCF was found to be 0.81.
`c1cc2ccc3cccc4ccc(c1)c2c34`: the log10 BCF turned out to be 3.18 and the log10 biotransformation half-life (days) was found to be 0.32.
